Drawing on patent publication US12365664B2, “Small molecule inhibitors of SRC tyrosine kinase” (Dana-Farber Cancer Institute, Inc., priority 2019, dated 2025), this text covers IC50 for 24 compounds.

The structures appear in SMILES notation. Where only a bound is given, the exact number is not on record here.

As usually defined, the IC50 is the concentration that gives 50% inhibition. Higher therefore signals lower potency.

For one assay, the target named is SRC (Homo sapiens (Human), UniProt P12931). Nature of the assay: SelectScreen Kinase Profiling Services commercial assay (ThermoFisher), SRC. Format: biochemical.
Chain of SRC (P12931 whole entry): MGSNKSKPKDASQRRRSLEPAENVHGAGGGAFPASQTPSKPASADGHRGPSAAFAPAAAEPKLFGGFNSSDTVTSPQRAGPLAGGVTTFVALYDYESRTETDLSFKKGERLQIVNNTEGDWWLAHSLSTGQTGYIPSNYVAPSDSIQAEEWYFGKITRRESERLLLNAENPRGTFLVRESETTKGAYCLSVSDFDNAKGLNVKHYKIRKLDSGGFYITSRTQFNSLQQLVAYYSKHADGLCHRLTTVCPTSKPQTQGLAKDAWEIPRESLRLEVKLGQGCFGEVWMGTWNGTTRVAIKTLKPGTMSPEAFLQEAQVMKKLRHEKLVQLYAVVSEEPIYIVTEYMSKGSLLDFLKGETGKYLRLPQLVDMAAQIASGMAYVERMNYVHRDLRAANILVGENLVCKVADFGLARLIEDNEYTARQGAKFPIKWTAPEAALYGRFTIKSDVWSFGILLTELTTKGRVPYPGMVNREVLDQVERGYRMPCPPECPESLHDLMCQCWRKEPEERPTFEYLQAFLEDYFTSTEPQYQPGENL
For another assay, the target named is YES1 (Homo sapiens (Human), UniProt P07947). The assay is described as follows: SelectScreen Kinase Profiling Services commercial assay (ThermoFisher), YES1. Format: biochemical.
Chain of YES1 (P07947 whole entry): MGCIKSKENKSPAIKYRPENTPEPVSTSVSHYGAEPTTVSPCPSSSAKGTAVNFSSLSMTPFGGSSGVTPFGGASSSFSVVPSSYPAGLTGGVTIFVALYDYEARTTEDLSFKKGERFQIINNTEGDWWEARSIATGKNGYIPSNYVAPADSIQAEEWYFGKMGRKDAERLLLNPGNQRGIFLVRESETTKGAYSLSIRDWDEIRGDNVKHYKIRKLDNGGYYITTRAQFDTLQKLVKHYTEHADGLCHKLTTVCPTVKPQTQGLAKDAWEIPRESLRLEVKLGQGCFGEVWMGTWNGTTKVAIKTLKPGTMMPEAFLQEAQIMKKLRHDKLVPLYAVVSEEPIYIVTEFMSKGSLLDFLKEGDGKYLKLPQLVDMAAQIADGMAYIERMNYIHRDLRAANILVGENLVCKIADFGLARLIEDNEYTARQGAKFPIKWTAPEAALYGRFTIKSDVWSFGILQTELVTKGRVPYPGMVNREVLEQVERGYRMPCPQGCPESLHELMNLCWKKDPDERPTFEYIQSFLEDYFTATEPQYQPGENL

Take `C=CC(=O)Nc1ccc(C)cc1Nc1nc(Nc2ccc(N3CCN(C)CC3)cc2)nc2ccoc12` [Compound 47, N-{4-methyl-2-[(2-{[4-(4-methylpiperazin-1-yl)phenyl]amino}furo [3,2-d]pyrimidin-4-yl)amino]phenyl}prop-2-enamide]: the IC50 against SRC lay in the range of 100 to 1000 nM; at YES1 it was 10 to 100 nM. Regarding `C=CC(=O)Nc1ccccc1Nc1nc(Nc2ccc(N3CCN(C)CC3)cc2)nc2sccc12` [Compound 14, N-{2-[(2-{[4-(4-methylpiperazin-1-yl)phenyl]amino}thieno[2,3-d]pyrimidin-4-yl)amino]phenyl}prop-2-enamide], the IC50 is 100 to 1000 nM against SRC and 10 to 100 nM against YES1. The matching figures for `C=CC(=O)Nc1cccc(F)c1Nc1nc(Nc2ccc(N3CCN(C)CC3)cc2)ncc1C(=O)Nc1c(C)cccc1Cl` [Compound 42, N-(2-chloro-6-methylphenyl)-4-{[2-fluoro-6-(prop-2-enamido)phenyl]amino}-2-{[4-(4-methylpiperazin-1-yl)phenyl]amino}pyrimidine-5-carboxamide]: 1 to 10 nM and below 1 nM. At SRC, `C=CC(=O)Nc1ccccc1Nc1nc(Nc2ccc(N3CCN(C)CC3)cc2)ncc1OCc1c(C)cccc1Cl` [Compound 17, N-(2-((5-((2-chloro-6-methylbenzyl)oxy)-2-((4-(4-methylpiperazin-1-yl)phenyl)amino)pyrimidin-4-yl)amino)phenyl)acrylamide] came in with an IC50 of 1 to 10 nM. The same measure, in the same setting: in the case of `C=CC(=O)Nc1cccc(CNc2nc(Nc3ccc(N4CCN(C)CC4)cc3)ncc2C(=O)Nc2c(C)cccc2Cl)c1` [Compound 49] it was 10 to 100 nM.

Take `C=CC(=O)Nc1cccc(C)c1Nc1nc(Nc2ccc(N3CCN(C)CC3)cc2)ncc1Cl` [Compound 31, N-{2-[(5-chloro-2-{[4-(4-methylpiperazin-1-yl)phenyl]amino}pyrimidin-4-yl)amino]-3-methylphenyl}prop-2-enamide]: the IC50 at SRC was in the range of 1000 to 10000 nM; on YES1 it was 100 to 1000 nM.

Compound `C=CC(=O)Nc1ccc(CNc2nc(Nc3ccc(N4CCN(C)CC4)cc3)ncc2C(=O)Nc2c(C)cccc2Cl)cc1` [Compound 51] registered an IC50 against SRC of 10 to 100 nM. For `C=CC(=O)Nc1ccccc1Nc1nc(Nc2ccc(N3CCN(C)CC3)cc2)nc(N)c1Cl` [Compound 13, N-{2-[(6-amino-5-chloro-2-{[4-(4-methylpiperazin-1-yl)phenyl]amino}pyrimidin-4-yl)amino]phenyl}prop-2-enamide], the IC50 was in the range of 10 to 100 nM at SRC and 1 to 10 nM against YES1. Regarding `C=CC(=O)Nc1ccccc1Nc1nc(Nc2ccc(N3CCN(C)CC3)cc2)ncc1OCc1ccc(C)cc1` [Compound 15, N-(2-((5-((4-methylbenzyl)oxy)-2-((4-(4-methylpiperazin-1-yl)phenyl)amino)pyrimidin-4-yl)amino)phenyl)acrylamide], the IC50 against SRC and against YES1 was 1 to 10 nM throughout. With `C=CC(=O)Nc1ccccc1Nc1nc(Nc2ccc(N3CCN(C)CC3)cc2)ncc1C(=O)Nc1c(C)cc(C(=O)O)cc1Cl` [Compound 30, 3-chloro-5-methyl-4-(2-{[4-(4-methylpiperazin-1-yl)phenyl]amino}-4-{[2-(prop-2-enamido)phenyl]amino}pyrimidine-5-amido)benzoic acid], the IC50 on SRC was above 10000 nM. For `C=CC(=O)Nc1ccc(C)cc1Nc1nc(Nc2ccc(N3CCN(C)CC3)cc2)ncc1Cl` [Compound 32, N-{2-[(5-chloro-2-{[4-(4-methylpiperazin-1-yl)phenyl]amino}pyrimidin-4-yl)amino]-4-methylphenyl}prop-2-enamide], the IC50 against SRC lay within 10 to 100 nM; on YES1, 1 to 10 nM.

Turning to `C=CC(=O)Nc1ccccc1CNc1nc(Nc2ccc(N3CCN(C)CC3)cc2)ncc1C(=O)Nc1c(C)cccc1Cl` [Compound 50], on SRC, the IC50 is 1 to 10 nM. As to `C=CC(=O)Nc1ccccc1Nc1nc(Nc2ccc(N3CCN(C)CC3)cc2)ncc1-c1ccc(OC)nc1` [Compound 9, N-(2-((5-(6-methoxypyridin-3-yl)-2-((4-(4-methylpiperazin-1-yl)phenyl)amino)pyrimidin-4-yl)amino)phenyl)acrylamide], the IC50 on SRC and against YES1 was 1 to 10 nM in each case. As to `C=CC(=O)Nc1ccccc1Nc1nc(Nc2ccc(N3CCN(C)CC3)cc2)ncc1C(=O)Nc1c(C)cccc1C` [Compound 28, N-(2,6-dimethylphenyl)-2-{[4-(4-methylpiperazin-1-yl)phenyl]amino}-4-{[2-(prop-2-enamido)phenyl]amino}pyrimidine-5-carboxamide], the IC50 against SRC is 1 to 10 nM; on YES1, below 1 nM. Consider `C=CC(=O)Nc1ccc(C)cc1Nc1nc(Nc2ccc(N3CCN(C)CC3)cc2)ncc1C(=O)Nc1c(C)cccc1Cl` [Compound 35, N-(2-chloro-6-methylphenyl)-4-{[5-methyl-2-(prop-2-enamido)phenyl]amino}-2-{[4-(4-methylpiperazin-1-yl)phenyl]amino}pyrimidine-5-carboxamide], for which the IC50 at SRC was 10 to 100 nM.

`C=CC(=O)Nc1ccccc1Nc1nc(Nc2ccc(N3CCN(C)CC3)cc2)nc2ccsc12` [Compound 11, N-{2-[(2-{[4-(4-methylpiperazin-1-yl)phenyl]amino}thieno[3,2-d]pyrimidin-4-yl)amino]phenyl}prop-2-enamide]: the IC50 against SRC and against YES1 was 1 to 10 nM each time. `C=CC(=O)Nc1ccccc1Nc1nc(Nc2ccc(N3CCN(C)CC3)cc2)ncc1CC` [Compound 2, N-{2-[(5-ethyl-2-{[4-(4-methylpiperazin-1-yl)phenyl]amino}pyrimidin-4-yl)amino]phenyl}prop-2-enamide]: the IC50 at SRC and against YES1 was 1 to 10 nM each time. As for `C=CC(=O)Nc1c(F)cccc1Nc1nc(Nc2ccc(N3CCN(C)CC3)cc2)ncc1Cl` [Compound 39, N-{2-[(5-chloro-2-{[4-(4-methylpiperazin-1-yl)phenyl]amino}pyrimidin-4-yl)amino]-6-fluorophenyl}prop-2-enamide], the IC50 against SRC is 1 to 10 nM. Turning to `C=CC(=O)Nc1ccccc1Nc1nc(Nc2ccc(N3CCN(C)CC3)cc2)ncc1-c1cccs1` [Compound 6, N-(2-((2-((4-(4-methylpiperazin-1-yl)phenyl)amino)-5-(thiophen-2-yl)pyrimidin-4-yl)amino)phenyl)acrylamide], the IC50 against SRC and against YES1 was 1 to 10 nM each time.

In the case of `C=CC(=O)Nc1ccccc1Nc1nc(Nc2ccc(N3CCN(C)CC3)cc2)ncc1Cl` [SM1-71, reference compound], the IC50 against SRC and at YES1 was 1 to 10 nM in each case.

Regarding `C=CC(=O)Nc1cc(F)ccc1Nc1nc(Nc2ccc(N3CCN(C)CC3)cc2)ncc1Cl` [Compound 40, N-{2-[(5-chloro-2-{[4-(4-methylpiperazin-1-yl)phenyl]amino}pyrimidin-4-yl)amino]-5-fluorophenyl}prop-2-enamide], the IC50 on SRC lay within 1 to 10 nM. Take `C=CC(=O)Nc1ccccc1Nc1nc(Nc2ccc(N3CCN(C)CC3)cc2)ncc1C(=O)NCc1ccc(Oc2ccccc2)cc1` [Compound 19, 2-{[4-(4-methylpiperazin-1-yl)phenyl]amino}-N-[(4-phenoxyphenyl)methyl]-4-{[2-(prop-2-enamido)phenyl]amino}pyrimidine-5-carboxamide]: the IC50 at SRC and on YES1 was above 10000 nM throughout. In the case of `C=CC(=O)Nc1ccc(C)cc1Nc1nc(Nc2ccc(N3CCN(C)CC3)cc2)nc2ccsc12` [Compound 46, N-{4-methyl-2-[(2-{[4-(4-methylpiperazin-1-yl)phenyl]amino}thieno[3,2-d]pyrimidin-4-yl)amino]phenyl}prop-2-enamide], the figures for the IC50 on SRC and against YES1 were 100 to 1000 nM and 10 to 100 nM, respectively. The matching figures for `C=CC(=O)Nc1ccccc1Nc1nc(Nc2ccc(N3CCN(C)CC3)cc2)ncc1C` [Compound 4, N-{2-[(5-methyl-2-{[4-(4-methylpiperazin-1-yl)phenyl]amino}pyrimidin-4-yl)amino]phenyl}prop-2-enamide]: 1 to 10 nM and 1 to 10 nM.
